The values below are quoted from earlier work in patent US11459613B2, “Methods of characterizing resistance to modulators of Cereblon” (THE BRIGHAM AND WOMEN'S HOSPITAL, INC., priority 2015, dated 2022).

The conditions of this data set: lenalidomide in combination with dexamethasone, front-line therapy, standard-risk multiple myeloma.

As for `Nc1cccc2c1CN(C1CCC(=O)NC1=O)C2=O` (stereo not shown) [lenalidomide], the “disease progression develops after initiating treatment (on average)” value was 11 months.
